Data reported in US20260001872A1, “BENZISOTHIAZOLE COMPOUND AND APPLICATION THEREOF, AND PHARMACEUTICAL COMPOSITION AND APPLICATION THEREOF” (Picomole Therapeutics (Liaoning) Co., Ltd., priority 2022, published 2026).
“And” between values parts separate entries of the source, which are not always exact repeats. Equal entries are not always repeated. Structures can show the parent of a compound that is named as a salt.

How the values were obtained:
[1] = tested on: premature ejaculation model in Wistar rats after PCA induction; experiment: premature ejaculation model in Wistar rats after PCA induction; format: in vivo; settings: for Actual ejaculation number / First contractive latency / First ejaculation latency / Seminal vesicle basal pressure (mmHg) / Seminal vesicle peak pressure (mmHg) / The number of seminal vesicle contractions: individual rats, within 30 min after PCA induction
Description: Male Wistar rats with body weight of about 300 g were subjected to a one-week acclimation period before the experiment began. On the day of the experiment, the animals were anesthetized with intraperitoneal (i.p.) injection of Zoletil 50 at 20 mg/kg combined with xylazine at 8 mg/kg, and then subjected to body temperature maintenance at 37° C. using a thermostatically controlled heating pad. The common carotid artery was exposed and cannulated with a PE50 catheter for real-time monitoring of arterial pressure (systolic blood pressure, diastolic blood pressure, and mean arterial pressure). The seminal vesicle and corpus cavernosum muscle of the animals were exposed. Seminal vesicle pressure and corpus cavernosum electromyographic (EMG) stabilized baseline were recorded for 10 min. In the dapoxetine group, the medications were administrated via tail vein intravenous (i.v.) injection; in the to-be-tested compound group, the to-be-tested compound was administrated orally (in the PE model group, the to-be-tested compound was substituted with vehicles); after 1 min, PCA (5 mg/kg) was intraperitoneally (i.p.) injected to induce the PE model; and recording of seminal vesicle pressure profiles and electromyographic (EMG) activity variations in the bulbocavernosus muscle continued to be performed for 30 min.
• A. The actual ejaculation number and the first ejaculation latency in animals within 30 min • B. The number of seminal vesicle contractions, the first contractive latency, basal pressure, and peak pressure within 30 min
The experimental data was represented by mean±S.E.M. and statistically analyzed by GraphPad Prism 7.0 software. One-way analysis of variance (One-way ANOVA) was used for comparison among multiple groups, and Dunnett't-test was used for statistical analysis in Post hoc test; and the comparison between two groups was statistically analyzed using Student's t-test. P<0.05 indicates a significant difference.

[2] = in vivo; cited from earlier work
[3] = 0.125 mg/kg p.o. + PCA 5 mg/kg i.p.
[4] = 0.5 mg/kg p.o. + PCA 5 mg/kg i.p.
[5] = 2 mg/kg p.o. + PCA 5 mg/kg i.p.
[6] = 2 mg/kg p.o. + PCA 5 mg/kg i.p., listed as A002
[7] = Dapoxetine 2 mg/kg i.v. + PCA 5 mg/kg i.p., hydrochloride
[8] = statistical analysis, PCA-induced model

For `c1ccc2nn(CCCCN3CCN(c4nsc5ccccc45)CC3)nc2c1` [A001], the Actual ejaculation number [1, 3] was 2 (2×) and 6 (2×) and 1, the “First contractive latency” value [1, 3] was 1278 s and 824 s and 889 s and 1207 s and 1558 s and the “First ejaculation latency” value [1, 3] was 1456 s and 916 s and 985 s and 1380 s and 1667 s. The “Seminal vesicle basal pressure (mmHg)” value [1, 3] was 5.79 mmHg and 6.18 mmHg and 6.05 mmHg and 4.78 mmHg and 3.89 mmHg, the “Seminal vesicle peak pressure (mmHg)” value [1, 3] was 13.46 mmHg and 16.77 mmHg and 20.06 mmHg and 11.05 mmHg and 9.81 mmHg and the “The number of seminal vesicle contractions” value (“The number” for short) [1, 3] was 5 and 9 and 8 and 4 and 3. The Actual ejaculation number [1, 4] was 2 (3×) and 0 (2×), the “First contractive latency” value [1, 4] was 1186 s and 1298 s and 1317 s and 1800 s (2×) and the “First ejaculation latency” value [1, 4] was 1256 s and 1382 s and 1477 s and 1800 s (2×). For the same compound, the “Seminal vesicle basal pressure (mmHg)” value [1, 4] was 5.76 mmHg and 5.88 mmHg and 5.79 mmHg and 3.67 mmHg and 3.87 mmHg, the “Seminal vesicle peak pressure (mmHg)” value [1, 4] was 11.87 mmHg and 10.66 mmHg and 9.08 mmHg and 4.86 mmHg and 5.23 mmHg and the “The number” value [1, 4] was 3 and 4 (2×) and 0 (2×). The Actual ejaculation number [1, 5] was 0, the “First ejaculation latency” value [1, 5] was 1800 s and the “First contractive latency” value [1, 6] was 1568 s and 1800 s (4×). For the same compound, the “Seminal vesicle basal pressure (mmHg)” value [1, 6] was 4.05 mmHg and 4.17 mmHg and 4.86 mmHg and 4.18 mmHg and 3.88 mmHg, the “Seminal vesicle peak pressure (mmHg)” value [1, 6] was 9.67 mmHg and 6.04 mmHg and 5.18 mmHg and 4.98 mmHg and 5.05 mmHg and the “The number” value [1, 6] was 2 and 0 (4×).
For `CN(C)[C@@H](CCOc1cccc2ccccc12)c1ccccc1` [Dapoxetine, Dapoxetine hydrochloride, reference compound], the bioavailability [2] is given as 42%, the Actual ejaculation number [1, 7] is given as 1 (2×) and 0 (2×) and 2 and the “First contractive latency” value [1, 7] is given as 1448 s and 1705 s and 1800 s and 1749 s and 866 s. The “First ejaculation latency” value [1, 7] was 1558 s and 1800 s (2×) and 1256 s and 967 s, the “Seminal vesicle basal pressure (mmHg)” value [1, 7] was 5.16 mmHg and 4.97 mmHg and 5.37 mmHg and 5.88 mmHg and 4.96 mmHg and the “Seminal vesicle peak pressure (mmHg)” value [1, 7] was 6.89 mmHg and 8.1 mmHg and 6.46 mmHg and 6.78 mmHg and 7.03 mmHg. For the same compound, the “The number” value [1, 7] was 1 (3×) and 0 and 3, the “initial seminal vesicle contractive latency compared with the PE model group” value ([1]; P<0.01, P<0.001, FIG. 4) was “significant increase” and the “contraction number of the corpus cavernosum muscle (conclusion)” value [1, 8] was “decrease”. For the same compound, the “ejaculation latency (conclusion)” value [1, 8] was “effectively prolong”, the “ejaculation number (conclusion)” value [1, 8] was “significantly decrease” and the “seminal vesicle pressure (conclusion)” value [1, 8] was “reduce”.
